ChEMBL document CHEMBL4673219, “Novel 5,6-disubstituted pyrrolo[2,3-d]pyrimidine derivatives as broad spectrum antiproliferative agents: Synthesis, cell based assays, kinase profile and molecular docking study” (Bioorg Med Chem, 2018)
“And” between values parts separate entries of the source, which are not always exact repeats. Equal entries are not always repeated.

How the values were obtained:
Assay type in all cases: functional
ACHN = experiment: Growth inhibition of human ACHN cells assessed as growth percentage at 10 uM incubated for 48 hrs by sulforhodamine B assay relative to control; conditions: read-out: Activity
HOP-62 = experiment: Growth inhibition of human HOP-62 cells assessed as growth percentage at 100 uM incubated for 48 hrs by sulforhodamine B assay relative to control; conditions: read-out: Activity
SK-MEL-5 = experiment: Growth inhibition of human SK-MEL-5 cells assessed as growth percentage at 100 uM incubated for 48 hrs by sulforhodamine B assay relative to control; conditions: read-out: Activity
SR = experiment: Growth inhibition of human SR cells assessed as growth percentage at 0.01 uM incubated for 48 hrs by sulforhodamine B assay relative to control; conditions: read-out: Activity
HCC 2998 [1] = experiment: Growth inhibition of human HCC 2998 cells assessed as growth percentage at 0.01 uM incubated for 48 hrs by sulforhodamine B assay relative to control; conditions: read-out: Activity
CCRF-CEM = experiment: Growth inhibition of human CCRF-CEM cells incubated for 48 hrs by sulforhodamine B assay
HCC 2998 [2] = experiment: Growth inhibition of human HCC 2998 cells assessed as growth percentage at 1 uM incubated for 48 hrs by sulforhodamine B assay relative to control; conditions: read-out: Activity
IGROV-1 [3] = experiment: Growth inhibition of human IGROV-1 cells incubated for 48 hrs by sulforhodamine B assay
SF-539 = experiment: Growth inhibition of human SF-539 cells incubated for 48 hrs by sulforhodamine B assay
MDA-MB-435 [4] = experiment: Growth inhibition of human MDA-MB-435 cells assessed as growth percentage at 1 uM incubated for 48 hrs by sulforhodamine B assay relative to control; conditions: read-out: Activity
CAKI-1 = experiment: Growth inhibition of human CAKI-1 cells incubated for 48 hrs by sulforhodamine B assay; conditions: for GI50: CAKI-1; for CC50: read-out: LC50 (the source's name)
TK-10 [5] = experiment: Growth inhibition of human TK-10 cells assessed as growth percentage at 0.1 uM incubated for 48 hrs by sulforhodamine B assay relative to control; conditions: read-out: Activity
RXF 393 = experiment: Growth inhibition of human RXF 393 cells assessed as growth percentage at 1 uM incubated for 48 hrs by sulforhodamine B assay relative to control; conditions: read-out: Activity
HCT-116 = experiment: Antiproliferative activity against human HCT-116 cells assessed as cell growth inhibition at 10 uM measured after 72 hrs by MTT assay relative to control; conditions: read-out: GI
Hs-578T [6] = experiment: Growth inhibition of human Hs-578T cells assessed as growth percentage at 100 uM incubated for 48 hrs by sulforhodamine B assay relative to control; conditions: read-out: Activity
HT-29 = experiment: Growth inhibition of human HT-29 cells incubated for 48 hrs by sulforhodamine B assay; conditions: for GI50: HT-29; for CC50: HT-29, read-out: LC50 (the source's name)
UACC-62 [7] = experiment: Growth inhibition of human UACC-62 cells assessed as growth percentage at 0.1 uM incubated for 48 hrs by sulforhodamine B assay relative to control; conditions: read-out: Activity
NCI/ADR-RES = experiment: Growth inhibition of human NCI/ADR-RES cells incubated for 48 hrs by sulforhodamine B assay; conditions: for CC50: read-out: LC50 (the source's name)
HCC 2998 [8] = experiment: Growth inhibition of human HCC 2998 cells assessed as growth percentage at 100 uM incubated for 48 hrs by sulforhodamine B assay relative to control; conditions: read-out: Activity
MDA-MB-435 [9] = experiment: Growth inhibition of human MDA-MB-435 cells assessed as growth percentage at 100 uM incubated for 48 hrs by sulforhodamine B assay relative to control; conditions: read-out: Activity
SF-268 = experiment: Growth inhibition of human SF-268 cells incubated for 48 hrs by sulforhodamine B assay
TK-10 [10] = experiment: Growth inhibition of human TK-10 cells assessed as growth percentage at 100 uM incubated for 48 hrs by sulforhodamine B assay relative to control; conditions: read-out: Activity
IGROV-1 [11] = experiment: Growth inhibition of human IGROV-1 assessed as growth percent at 1 uM incubated for 48 hrs by sulforhodamine B assay relative to control; conditions: read-out: Activity
RPMI-8226 = experiment: Growth inhibition of human RPMI-8226 cells assessed as growth percentage at 0.01 uM incubated for 48 hrs by sulforhodamine B assay relative to control; conditions: read-out: Activity
OVCAR-8 = experiment: Growth inhibition of human OVCAR-8 cells incubated for 48 hrs by sulforhodamine B assay; conditions: for CC50: read-out: LC50 (the source's name)
UACC-62 [12] = experiment: Growth inhibition of human UACC-62 cells assessed as growth percentage at 0.01 uM incubated for 48 hrs by sulforhodamine B assay relative to control; conditions: read-out: Activity
Malme-3M = experiment: Growth inhibition of human Malme-3M cells assessed as growth percentage at 100 uM incubated for 48 hrs by sulforhodamine B assay relative to control; conditions: read-out: Activity
NCI-H23 = experiment: Growth inhibition of human NCI-H23 cells assessed as growth percentage at 0.01 uM incubated for 48 hrs by sulforhodamine B assay relative to control; conditions: read-out: Activity
UACC-257 = experiment: Growth inhibition of human UACC-257 cells assessed as growth percentage at 0.01 uM incubated for 48 hrs by sulforhodamine B assay relative to control; conditions: read-out: Activity
NCI-H226 = experiment: Growth inhibition of human NCI-H226 cells assessed as growth percentage at 1 uM incubated for 48 hrs by sulforhodamine B assay relative to control; conditions: read-out: Activity
MOLT-4 = experiment: Growth inhibition of human MOLT-4 cells assessed as growth percentage at 100 uM incubated for 48 hrs by sulforhodamine B assay relative to control; conditions: read-out: Activity
HOP-92 = experiment: Growth inhibition of human HOP-92 cells assessed as growth percentage at 100 uM incubated for 48 hrs by sulforhodamine B assay relative to control; conditions: read-out: Activity
MDA-MB-231 = experiment: Growth inhibition of human MDA-MB-231/ATCC cells assessed as growth percentage at 0.1 uM incubated for 48 hrs by sulforhodamine B assay relative to control; conditions: read-out: Activity
SK-MEL-28 = experiment: Growth inhibition of human SK-MEL-28 cells incubated for 48 hrs by sulforhodamine B assay
SF-295 = experiment: Growth inhibition of human SF-295 cells assessed as growth percentage at 100 uM incubated for 48 hrs by sulforhodamine B assay relative to control; conditions: read-out: Activity
MDA-MB-468 = experiment: Growth inhibition of human MDA-MB-468 cells assessed as growth percentage at 10 uM incubated for 48 hrs by sulforhodamine B assay relative to control; conditions: read-out: Activity
T47D = experiment: Growth inhibition of human T47D cells assessed as growth percentage at 10 uM incubated for 48 hrs by sulforhodamine B assay relative to control; conditions: read-out: Activity
Hs-578T [13] = experiment: Growth inhibition of human Hs-578T cells assessed as growth percentage at 0.01 uM incubated for 48 hrs by sulforhodamine B assay relative to control; conditions: read-out: Activity

CCCCCCCC(=O)Nc1nc2[nH]c(CN3CCN(Cc4cccc(F)c4)CC3)c(CN3CCN(Cc4cccc(F)c4)CC3)c2c(=O)[nH]1
growth at 10 µM (ACHN): -96.6%
growth at 100 µM (HOP-62): -95%
growth at 100 µM (SK-MEL-5): -81%
growth at 0.01 µM (SR): 92%
growth at 0.01 µM (HCC 2998 [1]): 99%
GI50 (CCRF-CEM; 48 h): 250 nM
LC50 (CCRF-CEM; 48 h): 100000 nM and > 1000 nM
GI50 (CCRF-CEM; Homo sapiens, CCRF-CEM, 48 h): 251 nM
growth at 1 µM (HCC 2998 [2]): -33%
GI50 (IGROV-1 [3]): 1430 nM
TGI (IGROV-1 [3]): 3200 nM
CC50 (IGROV-1 [3]; read-out: LC50 (the source's name)): 7140 nM
GI50 (SF-539): 1560 nM
growth at 1 µM (MDA-MB-435 [4]): 10%
GI50 (CAKI-1; Homo sapiens): 1320 nM
TGI (CAKI-1; Homo sapiens, CAKI-1, 48 h): 2610 nM
CC50 (CAKI-1; Homo sapiens, CAKI-1, 48 h): 5180 nM
growth at 0.1 µM (TK-10 [5]): 96%
growth at 1 µM (RXF 393): 29%
inhibition of growth at 10 µM (HCT-116): 95.5%
growth at 100 µM (Hs-578T [6]): -40%
GI50 (HT-29): 260 nM
CC50 (HT-29): 3760 nM
growth at 0.1 µM (UACC-62 [7]): 100%
GI50 (NCI/ADR-RES; Homo sapiens, NCI/ADR-RES): 1500 nM
TGI (NCI/ADR-RES; Homo sapiens, NCI/ADR-RES): 3010 nM
CC50 (NCI/ADR-RES; Homo sapiens, NCI/ADR-RES): 6040 nM
growth at 100 µM (HCC 2998 [8]): -79%
growth at 100 µM (MDA-MB-435 [9]): -83%
GI50 (SF-268): 1260 nM
LC50 (SF-268): 5730 nM
TGI (SF-268): 2680 nM
growth at 100 µM (TK-10 [10]): -91%
growth at 1 µM (IGROV-1 [11]): 72%
growth at 0.01 µM (RPMI-8226): 101%
GI50 (OVCAR-8; 48 h): 210 nM
TGI (OVCAR-8; 48 h): 410 nM
CC50 (OVCAR-8; 48 h): 800 nM
GI50 (OVCAR-8; Homo sapiens, OVCAR-8, 48 h): 205 nM
TGI (OVCAR-8; Homo sapiens, OVCAR-8, 48 h): 405 nM
CC50 (OVCAR-8; Homo sapiens, OVCAR-8, 48 h): 801 nM
growth at 0.01 µM (UACC-62 [12]): 97%
growth at 100 µM (Malme-3M): -73%
growth at 0.01 µM (NCI-H23): 98%
growth at 0.01 µM (UACC-257): 89%
growth at 1 µM (NCI-H226): 91%
growth at 100 µM (MOLT-4): -7%
growth at 100 µM (HOP-92): -95%
growth at 0.1 µM (MDA-MB-231): 108%
GI50 (SK-MEL-28): 1790 nM
TGI (SK-MEL-28): 3620 nM
growth at 100 µM (SF-295): -81%
growth at 10 µM (MDA-MB-468): -68.7%
growth at 10 µM (T47D): -84.2%
growth at 0.01 µM (Hs-578T [13]): 97%

Nc1nc2[nH]c(CN3CCN(c4cc(Cl)cc(Cl)c4)CC3)c(CN3CCN(c4cc(Cl)cc(Cl)c4)CC3)c2c(=O)[nH]1
growth at 10 µM (ACHN): 96.8%
growth at 100 µM (HOP-62): -38%
growth at 100 µM (SK-MEL-5): -61%
growth at 0.01 µM (SR): 102%
growth at 0.01 µM (HCC 2998 [1]): 106%
TGI (CCRF-CEM; Homo sapiens, CCRF-CEM): 5520 nM
GI50 (CCRF-CEM; Homo sapiens, CCRF-CEM, 48 h): 2070 nM
growth at 1 µM (HCC 2998 [2]): 93%
GI50 (IGROV-1 [3]): 1950 nM
TGI (IGROV-1 [3]): 3980 nM
GI50 (SF-539): 1720 nM
TGI (SF-539): 3260 nM
growth at 1 µM (MDA-MB-435 [4]): 88%
TGI (CAKI-1; 48 h): 18000 nM and 1800 nM
CC50 (CAKI-1; 48 h): 43700 nM and 4370 nM
GI50 (CAKI-1; Homo sapiens): 5100 nM
growth at 0.1 µM (TK-10 [5]): 103%
growth at 1 µM (RXF 393): 85%
inhibition of growth at 10 µM (HCT-116): 91.7%
growth at 100 µM (Hs-578T [6]): -25%
GI50 (HT-29): 1740 nM
TGI (HT-29; HT-29, 48 h): 3410 nM
CC50 (HT-29): 6700 nM
growth at 0.1 µM (UACC-62 [7]): 102%
TGI (NCI/ADR-RES): 100000 nM and > 1000 nM
CC50 (NCI/ADR-RES): > 100000 nM
growth at 100 µM (HCC 2998 [8]): -38%
growth at 100 µM (MDA-MB-435 [9]): -80%
GI50 (SF-268): 1770 nM
TGI (SF-268): 3350 nM
growth at 100 µM (TK-10 [10]): -69%
growth at 1 µM (IGROV-1 [11]): 96%
growth at 0.01 µM (RPMI-8226): 102%
GI50 (OVCAR-8; Homo sapiens, OVCAR-8, 48 h): 2050 nM
TGI (OVCAR-8; Homo sapiens, OVCAR-8, 48 h): 4480 nM
growth at 0.01 µM (UACC-62 [12]): 101%
growth at 100 µM (Malme-3M): -42%
growth at 0.01 µM (NCI-H23): 104%
growth at 0.01 µM (UACC-257): 96%
growth at 1 µM (NCI-H226): 93%
growth at 100 µM (MOLT-4): -7%
growth at 100 µM (HOP-92): -72%
growth at 0.1 µM (MDA-MB-231): 98%
GI50 (SK-MEL-28): 1790 nM
TGI (SK-MEL-28): 3620 nM
growth at 100 µM (SF-295): -33%
growth at 10 µM (MDA-MB-468): 40.1%
growth at 10 µM (T47D): 62.9%
growth at 0.01 µM (Hs-578T [13]): 89%
